We go through 3 compounds from article PMC10290124 (Nature Communications, 2023).

A word on the IC50: it is the point on the concentration scale where inhibition reaches its midpoint. Lower therefore signals greater potency in that assay. The term EC50 denotes the concentration that produces a half-maximal response.

In assay [1] the target is T1, RhoA (Homo sapiens, UniProt P61586).
T1 construct: endogenous RhoA from HEK 293S cells, co-purified with hTRPV4; with TRPV4
The experiment in a line: cryo-EM structure of the hTRPV4-RhoA complex (ARD-RhoA local refinement, […] Å). The assay is classed as binding.

In assay [2] the target is T2, human TRPV4 (hTRPV4) (Homo sapiens, UniProt Q9HBA0).
Assay [3] addresses T2, human TRPV4 (hTRPV4). The assay can be described thus: cryo-EM structure ([…] Å, open state); EC50 from Fura-2 calcium imaging in HEK […] cells. Type of assay: cell-based. Details: with RhoA.

T2 sequence (Q9HBA0 whole entry): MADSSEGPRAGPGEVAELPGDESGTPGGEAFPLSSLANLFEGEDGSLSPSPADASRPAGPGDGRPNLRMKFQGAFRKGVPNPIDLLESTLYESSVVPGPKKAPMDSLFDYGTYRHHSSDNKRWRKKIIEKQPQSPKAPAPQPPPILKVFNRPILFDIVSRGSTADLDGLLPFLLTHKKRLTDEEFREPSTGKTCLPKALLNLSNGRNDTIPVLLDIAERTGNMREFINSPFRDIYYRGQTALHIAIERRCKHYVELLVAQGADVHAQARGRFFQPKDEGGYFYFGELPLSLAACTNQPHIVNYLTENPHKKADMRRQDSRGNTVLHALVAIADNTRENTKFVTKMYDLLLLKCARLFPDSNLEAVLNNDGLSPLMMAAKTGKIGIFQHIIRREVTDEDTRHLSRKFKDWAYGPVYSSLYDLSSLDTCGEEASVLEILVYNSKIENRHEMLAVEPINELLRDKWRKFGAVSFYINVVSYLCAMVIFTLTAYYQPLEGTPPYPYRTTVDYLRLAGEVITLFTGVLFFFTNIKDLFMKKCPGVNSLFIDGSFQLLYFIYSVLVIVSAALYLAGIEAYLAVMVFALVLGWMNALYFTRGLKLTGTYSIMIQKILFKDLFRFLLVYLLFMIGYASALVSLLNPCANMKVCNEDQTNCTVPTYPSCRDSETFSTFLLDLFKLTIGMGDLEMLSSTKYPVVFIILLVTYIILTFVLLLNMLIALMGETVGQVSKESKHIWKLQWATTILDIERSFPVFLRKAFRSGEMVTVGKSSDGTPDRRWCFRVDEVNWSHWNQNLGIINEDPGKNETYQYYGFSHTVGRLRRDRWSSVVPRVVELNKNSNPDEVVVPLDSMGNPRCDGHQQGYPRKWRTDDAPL
T2 sequence (P61586 1-190 partner): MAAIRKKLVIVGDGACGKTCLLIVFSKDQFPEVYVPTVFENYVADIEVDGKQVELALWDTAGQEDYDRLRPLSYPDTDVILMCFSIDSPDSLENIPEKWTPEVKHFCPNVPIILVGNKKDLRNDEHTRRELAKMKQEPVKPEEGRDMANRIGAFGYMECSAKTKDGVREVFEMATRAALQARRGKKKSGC
T1 sequence (P61586 1-190): as the sequence (P61586 1-190 partner) above
T1 sequence (Q9HBA0 whole entry partner): as the sequence (Q9HBA0 whole entry) above

`Nc1nc2c(ncn2[C@@H]2O[C@H](CO[P@](=O)(O)OP(=O)(O)O)[C@@H](O)[C@H]2O)c(=O)[nH]1` [GDP, guanosine diphosphate]: in assay [1], the “cryo-EM structure of the hTRPV4-RhoA complex (ARD-RhoA local refinement, 3.49 Å)” value is recorded as “unambiguously identify the endogenous molecule of guanosine diphosphate (GDP) bound in the RhoA ligand-binding pocket”.
In assay [2], `Cc1c(C(=O)Nc2cccc(C(F)(F)F)c2)cc(-c2ccccc2)n1CCCN1CCOCC1` [HC-067047] yielded an IC50 of 25 ± 6.2 nM.
In the case of `CCCCCCCCCC(=O)O[C@@H]1[C@@H](C)[C@@]2(O)[C@@H](C=C(CO)C[C@@]3(O)C(=O)C(C)=C[C@@H]23)[C@@H]2C(C)(C)[C@]12OC(=O)CCCCCCCCC` [4α-PDD, 4α-phorbol 12,13-didecanoate], in assay [3], the EC50 came to 450 ± 39 nM.
